Source: patent US12012374B2, “Agonists of ROR GAMMAt” (BRISTOL-MYERS SQUIBB COMPANY, priority 2019, dated 2024)

These compounds were tested against T1, human RORgT (Homo sapiens, UniProt P51449) (assay: RORgT Gal4 Luciferase Reporter Gene Assay). Details: engineered Jurkat cells overexpressing RORgT (LBD or full length) fused with Gal4 Luc reporter; 18 hours incubation.
T1 construct: expressed in transfected cells; host or cells: engineered Jurkat cells (Jurkat pEx/Gal/hRORγ CLBD/HYG pG5luc/blast)
T1 sequence (P51449 267-516): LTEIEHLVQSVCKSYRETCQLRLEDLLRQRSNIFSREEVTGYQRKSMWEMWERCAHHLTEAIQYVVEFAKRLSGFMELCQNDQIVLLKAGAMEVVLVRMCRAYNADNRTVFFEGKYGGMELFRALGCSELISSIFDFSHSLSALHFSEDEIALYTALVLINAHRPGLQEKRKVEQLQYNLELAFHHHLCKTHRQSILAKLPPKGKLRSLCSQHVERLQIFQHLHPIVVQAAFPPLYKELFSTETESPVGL
Type: cell-based

| SMILES | EC50 [nM] |
| --- | --- |
| O=C(C1CCS(=O)(=O)CC1)N1CC[C@](c2ccc(OCc3c(Cl)cccc3Cl)cc2)(S(=O)(=O)c2ccc(F)cc2)C1 [Example 36, 4-[(3R)-3-{4-[(2,6-dichlorophenyl)methoxy]phenyl}-3-(4-fluorobenzenesulfonyl)pyrrolidine-1-carbonyl]-1λ^6-thiane-1,1-dione] | 17 |
| O=C(N1CC[C@](c2ccc(OCc3c(Cl)cccc3C(F)(F)F)cc2)(S(=O)(=O)c2ccc(F)cc2)C1)C1(O)CCS(=O)(=O)CC1 [Example 46, 4-[(3R)-3-(4-{[2-chloro-6-(trifluoromethyl)phenyl]methoxy}phenyl)-3-(4-fluorobenzenesulfonyl)pyrrolidine-1-carbonyl]-4-hydroxy-1λ^6-thiane-1,1-dione] | 42 |
| NC(=O)[C@H]1CC[C@H](C(=O)N2CC[C@](c3ccc(OCc4c(F)cccc4C(F)(F)F)cc3)(S(=O)(=O)c3ccc(F)cc3)C2)CC1 [Example 44, (1r,4r)-4-[(3R)-3-(4-{[2-fluoro-6-(trifluoromethyl)phenyl]methoxy}phenyl)-3-(4-fluorobenzenesulfonyl)pyrrolidine-1-carbonyl]cyclohexane-1-carboxamide] | 195 |

Second part, the compound after the results:

| EC50 [nM] | SMILES |
| --- | --- |
| 293 | O=C(O)[C@H]1CC[C@H](C(=O)N2CC[C@](c3ccc(OCc4c(Cl)cccc4C(F)(F)F)cc3)(S(=O)(=O)c3ccc(F)cc3)C2)CC1 [Example 47, (1r,4r)-4-[(3R)-3-(4-{[2-chloro-6-(trifluoromethyl)phenyl]methoxy}phenyl)-3-(4-fluorobenzenesulfonyl)pyrrolidine-1-carbonyl]cyclohexane-1-carboxylic acid] |
| 723 | O=S(=O)(c1ccc(F)cc1)C1(c2ccc(OCc3ccccc3F)cc2)CCCC1 [Example 7, 1-[1-(4-fluorobenzenesulfonyl)cyclopentyl]-4-[(2-fluorophenyl)methoxy]benzene] |
| 203 | O=S(=O)(c1ccccc1)C1(c2ccc(OCc3ccccc3F)cc2)CCCC1 [Example 13, 1-[1-(benzenesulfonyl)cyclopentyl]-4-[(2-fluorophenyl)methoxy]benzene] |
| 77 | O=C(Cc1ccncc1)N1CCC(c2ccc(OCc3c(Cl)cccc3Cl)cc2)(S(=O)(=O)c2ccccc2)C1 (centres unmarked) [Example 26, 1-[3-(benzenesulfonyl)-3-{4-[(2,6-dichlorophenyl)methoxy]phenyl}pyrrolidin-1-yl]-2-(pyridin-4-yl)ethan-1-one] |
| 84 | O=C(C1CCS(=O)(=O)CC1)N1CCC(c2ccc(OCc3ccccc3C(F)(F)F)cc2)(S(=O)(=O)c2ccccc2)C1 (centres unmarked) [Example 32, 4-[3-(benzenesulfonyl)-3-(4-{[2-(trifluoromethyl)phenyl]methoxy}phenyl)pyrrolidine-1-carbonyl]-1λ^6-thiane-1,1-dione] |
